Like-named read-outs stand apart in the source and are kept apart here.
Tests used:
[1] = test system: mouse plasma proteins; assay: Plasma protein binding by equilibrium dialysis, mouse plasma; assay type: in vitro ADME; conditions: fraction unbound
Protocol: (§1) In assays to estimate binding of test compounds to plasma proteins, test compound solutions (5 μM) are prepared in buffer and species-specific plasma (final DMSO concentration 0.5%). The plasma-containing solution is added to one side of the membrane of an equilibrium dialysis system, and the plasma-free is added to the other side. Dialysis was allowed to reach equilibrium by incubation for two hours at 37° C. The concentration of compound on both sides of the membrane was measured using LC-MS/MS.

[2] = test system: PBMCs; assay: Toxicity in PBMCs cultured without virus (XTT)
Protocol: Fresh human peripheral blood mononuclear cells (PBMCs) obtained from a commercial source were purified following centrifugation using a Ficoll-Hypaque density gradient. Viable cells were induced to proliferate in the presence of PHA-P and recombinant human IL-2 for 72 hours. […] Cell supernatant containing HIV-1 viral was incubated for 90 minutes at 37° C. with a reaction mixture containing EGTA, Triton X-100, Tris (pH 7.4), DTT, MgCl2, poly rA, oligo dT, and tritiated thymidine triphosphate (TTP). Incorporation of TTP into DNA was monitored by spotting the reaction mixture onto a DEAE filter mat, followed by washes with 5% phosphate buffer, distilled water, and 70% ethanol, and subsequent drying of the mat. […] TI was calculated as TC50/EC50.

[3] = test system: rat plasma proteins; assay: Plasma protein binding by equilibrium dialysis, rat plasma; assay type: in vitro ADME; conditions: fraction unbound
Protocol: as §1

[4] = test system: monkey plasma proteins; assay: Plasma protein binding by equilibrium dialysis, monkey plasma; assay type: in vitro ADME; conditions: fraction unbound
Protocol: as §1

[5] = test system: beagle dog hepatocytes; assay: Metabolic stability in beagle dog hepatocytes; assay type: in vitro ADME; conditions: 0.1 uM
[6] = test system: CEM-SS cells; assay: CEM-SS cytotoxicity (XTT); conditions: 7 days
Protocol: One day prior to assay initiation, cells were split 1:2 to assure exponential growth at the time of the assay. Cells were counted using a hemocytometer, and viability measured by Trypan Blue dye exclusion. […] CEM-SS cells were resuspended at 5×10^4 cells/mL in medium, and 100 μL of the cell suspension was aliquoted to individual wells of a 96-well microtiter plate containing 100 μL 2× concentration test compound. Plates were incubated for 7 days at 37° C., 5% CO2 until cytotoxicity evaluation.
Test compound-induced cytotoxicity was evaluated by monitoring the reduction of the tetrazolium dye XTT to a soluble formazan product in microtiter plates containing compound-treated cells in the absence of HIV-1 virus. XTT solution was prepared at 0.15 mg/mL in phosphate buffered saline. Phenazine methosulfate (PMS) solution was prepared at 0.15 mg/mL in phosphate buffered saline. A XTT/PMS stock solution was prepared immediately before use by combining 40 uL of PMS per mL of XTT solution. Fifty microliters of the XTT/PMS stock was added to each well of the microtiter plate, the plate was incubated for four hours at 37° C., and the amount of soluble formazan product was measured as the absorbance at 450 nm. Cell viability is directly proportional to the amount of soluble formazan product formed.

[7] = test system: Sprague-Dawley rat hepatocytes; assay: Metabolic stability in Sprague-Dawley rat hepatocytes; assay type: in vitro ADME; conditions: 0.1 uM
[8] = test system: human plasma proteins; assay: Plasma protein binding by equilibrium dialysis, human plasma; assay type: in vitro ADME; conditions: human plasma, 5 μM, fraction unbound
Outline: (§2)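 Test compound solutions (5 μM, final DMSO 0.5%) are made in buffer and in plasma of the relevant species. Plasma solution goes on one membrane side, plasma-free solution on the other. After 2 h at 37 °C, both sides are analysed by LC-MS/MS.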

[9] = test system: human liver microsomal proteins; assay: Microsomal protein binding by equilibrium dialysis; assay type: in vitro ADME; conditions: human liver microsomes, 3 μM, fraction unbound
Outline: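 Compound at 3 μM final in buffer with or without human liver microsomes, dialysed to equilibrium at 37 °C. Both sides quantified by LC-MS/MS to derive fraction unbound (Fu).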

[10] = test system: CEM-SS cells; assay: CEM-SS macromolecule synthesis (tritiated precursor incorporation); assay type: cell-based; conditions: for Thymidine incorportation (CEM-SS) TC50: DNA synthesis; for Uridine incorporation (CEM-SS) TC50: RNA synthesis; for Leucine Incorporation (CEM-SS) TC50: protein synthesis
Protocol: Cellular macromolecule synthesis was evaluated using tritiated precursor incorporation assays. CEM-SS cells (2.5×10^3 cells/well) were cultured in the presence or absence of test compound for 7 days at 37 C, 5% CO2 in a 96-well microtiter plate. On day 6 of the incubation, 1 uCi of [methyl-3H]-thymidine for DNA synthesis, [5-3H]-uridine for RNA synthesis, or [3,4,5-3H]-leucine for protein synthesis was added to compound-treated cells, and the plate was further incubated for 16 hours. The cells were transferred to a glass fiber filtermat using an Inotech cell harvester. The filtermats were washed with distilled water then sealed in a bag with scintillation fluid. Incorporated radioactivity was measured using a Wallac scintillation counter.

[11] = test system: human hepatocytes; assay: Metabolic stability in cryopreserved human hepatocytes; conditions: human hepatocytes
Outline: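 Test compounds at 0.1 μM or 3 μM incubated with cryopreserved human hepatocytes at 0.5×10^6 viable cells/mL. Sampling up to four hours (0.1 μM) or one or two hours (3 μM), methanol quench, then remaining parent measured by cassette LC-MS/MS.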

[12] = Bi-directional permeability in Caco-2 monolayers; conditions: human
Protocol: Absorption properties of various compounds were measured using bi-directional permeability assays in Caco-2 cells. […] The efflux ratio is calculated as the ratio of the Papp(B→A)/Papp(A→B).

[13] = Plasma protein binding by equilibrium dialysis, human plasma; assay type: in vitro ADME; conditions: human plasma, 5 μM, fraction unbound; read-out: Plasma Protein Binding Fu ± SD
Outline: as §2

[14] = Plasma protein binding by equilibrium dialysis, dog plasma; assay type: in vitro ADME; conditions: read-out: Dog Plasma Protein Binding Fu ± SD
Protocol: as §1

[15] = molecular target: CYP2C9 (Homo sapiens (Human), UniProt P11712); assay: biochemical
[16] = seven days, absence of virus, XTT

Sequence of CYP2C9 (P11712 whole entry): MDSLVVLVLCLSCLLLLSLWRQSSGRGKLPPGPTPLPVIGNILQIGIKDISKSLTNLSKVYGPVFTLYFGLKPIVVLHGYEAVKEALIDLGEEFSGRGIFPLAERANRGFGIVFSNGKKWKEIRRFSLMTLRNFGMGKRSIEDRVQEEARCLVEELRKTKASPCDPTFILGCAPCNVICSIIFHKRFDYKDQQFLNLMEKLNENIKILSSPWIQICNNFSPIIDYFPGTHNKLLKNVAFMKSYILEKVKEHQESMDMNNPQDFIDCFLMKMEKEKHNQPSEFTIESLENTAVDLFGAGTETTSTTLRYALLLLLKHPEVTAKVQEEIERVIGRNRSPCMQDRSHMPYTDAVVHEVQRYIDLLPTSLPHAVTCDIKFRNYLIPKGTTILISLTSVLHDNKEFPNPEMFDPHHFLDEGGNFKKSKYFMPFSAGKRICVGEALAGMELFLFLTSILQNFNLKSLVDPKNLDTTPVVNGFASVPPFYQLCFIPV

SMILES | Mouse Plasma Protein Binding Fu ± SD [1] | Rat Plasma Protein Binding Fu ± SD [3] | Monkey Plasma Protein Binding Fu ± SD [4] | CLint ± SEM [5] | t1/2 [5] | XTT (CEM-SS) TC50 [6] | Plasma Protein Binding Fu ± SD [8] | Microsomal Protein Binding Fu ± SD [9] | Thymidine incorportation (CEM-SS) TC50 [10] | Uridine incorporation (CEM-SS) TC50 [10] | Leucine Incorporation (CEM-SS) TC50 [10] | CLint ± SEM ([11]; 0.1 uM, up to four hours) | t1/2 ([11]; 0.1 uM, up to four hours) | other results
COCCOCCOCCOCCOCCOCCOCCOC(=O)NC(C(=O)NC(Cc1ccccc1)C(O)CN(Cc1ccc(-c2ccccn2)cc1)NC(=O)C(NC(=O)OC)C(C)(C)C)C(C)(C)C (centres unmarked) [mono-mPEG7-Atazanavir] | 0.174 ± 0.00791 | 0.255 ± 0.0778 | 0.570 ± 0.0439 | – | – | – | – | – | – | – | – | – | – | PBMC TC50 ± SD [2]: 187.2 µM
COCCOCCOCCOCCOCCOc1ccc(C[C@H](NC(=O)O[C@H]2CO[C@H]3OCC[C@H]32)C(O)CN(CC(C)C)S(=O)(=O)c2ccc(N)cc2)cc1 (some centres unmarked) [mPEG5-O-Darunavir] | – | – | – | 4.93 ± 0.000253 μL/min/10^6 cells | 4.68 h | >400 µM | 0.448 ± 0.0195 | 0.804 ± 0.253 | 165.7 µM | >400 µM | >400 µM | – | – | PBMC TC50 ± SD [2, 16]: >200 µM; CLint ± SEM [7]: 37.0 ± 0.00425 μL/min/10^6 cells; t1/2 [7]: 0.625 h
COCCOCCOCCOCCOCCOC(=O)NC(C(=O)NC(Cc1ccccc1)C(O)CN(Cc1ccc(-c2ccccn2)cc1)NC(=O)C(NC(=O)OC)C(C)(C)C)C(C)(C)C (centres unmarked) [mono-mPEG5-Atazanavir] | 0.217 ± 0.0103 | 0.307 ± 0.0493 | 0.383 ± 0.359 | – | – | – | – | – | – | – | – | 3.98 ± 0.000356 μL/min/10^6 cells | 5.8 h | –
COCCOCCOCCOCCOCCOCCOC(=O)NC(C(=O)NC(Cc1ccccc1)C(O)CN(Cc1ccc(-c2ccccn2)cc1)NC(=O)C(NC(=O)OC)C(C)(C)C)C(C)(C)C (centres unmarked) [mono-mPEG6-Atazanavir] | 0.159 ± 0.0167 | 0.451 ± 0.0385 | 0.598 ± 0.00839 | 0.209 ± 0.000143 μL/min/10^6 cells | 110.6 h | – | – | – | – | – | – | 0.778 ± 0.000211 μL/min/10^6 cells | 29.68 h | –
COCCOCCOCCOc1ccc(C[C@H](NC(=O)O[C@H]2CO[C@H]3OCC[C@H]32)C(O)CN(CC(C)C)S(=O)(=O)c2ccc(N)cc2)cc1 (some centres unmarked) [mPEG3-O-Darunavir] | – | – | – | 15.5 ± 0.000361 μL/min/10^6 cells | 1.49 h | >400 µM | 0.274 ± 0.0194 | 0.936 ± 0.0109 | 262.9 µM | >400 µM | >400 µM | – | – | PBMC TC50 ± SD [2, 16]: >200 µM; CLint ± SEM [7]: 28.4 ± 0.00359 μL/min/10^6 cells; t1/2 [7]: 0.813 h
COCCOCCOCCOCCOCCNc1ccc(S(=O)(=O)N(CC(C)C)CC(O)[C@H](Cc2ccccc2)NC(=O)O[C@H]2CO[C@H]3OCC[C@H]32)cc1 (some centres unmarked) [mPEG5-N-Darunavir] | – | – | – | – | – | – | 0.338 ± 0.0368 | 0.864 ± 0.011 | – | – | – | 3.94 ± 0.386 μL/min/10^6 cells | 5.87 h | CLint ± SEM ([11]; 3 uM, incubated up to one hour): 11.9 ± 1.40 μL/min/10^6 cells
COCCOC(=O)NC(C(=O)NC(Cc1ccccc1)C(O)CN(Cc1ccc(-c2ccccn2)cc1)NC(=O)C(NC(=O)OC)C(C)(C)C)C(C)(C)C (centres unmarked) [mono-mPEG1-Atazanavir] | 0.0666 ± 0.00662 | 0.0793 ± 0.00541 | 0.246 ± 0.0239 | 31.1 ± 0.000512 μL/min/10^6 cells | 0.742 h | – | – | – | – | – | – | 15.3 ± 0.00173 μL/min/10^6 cells | 1.51 h | PBMC TC50 ± SD [2]: 135.9 µM; CLint ± SEM [7]: 82.5 ± 0.0100 μL/min/10^6 cells; t1/2 [7]: 0.28 h
COCCOCCOCCOCCOCCOCCOCCNc1ccc(S(=O)(=O)N(CC(C)C)CC(O)[C@H](Cc2ccccc2)NC(=O)O[C@H]2CO[C@H]3OCC[C@H]32)cc1 (some centres unmarked) [mPEG7-N-Darunavir] | – | – | – | – | – | – | 0.364 ± 0.0298 | 0.973 ± 0.0139 | – | – | – | – | – | PBMC TC50 ± SD [2, 16]: >200 µM; CLint ± SEM ([11]; 3 uM, incubated up to one hour): 5.13 ± 0.611 μL/min/10^6 cells
CC(C)CN(C[C@@H](O)[C@H](Cc1ccccc1)NC(=O)O[C@H]1CO[C@H]2OCC[C@H]21)S(=O)(=O)c1ccc(N)cc1 [Darunavir, reference compound] | – | – | – | – | – | 338.6 µM | – | – | 223.2 µM | >400 µM | 285.8 µM | – | – | Papp A→B ([12]; Caco-2): 2.55 ×10⁻⁶ cm/s; fraction unbound at 2 h, 5 μM [13]: 0.144 ± 0.0051
COC(=O)N[C@H](C(=O)N[C@@H](Cc1ccccc1)[C@@H](O)CN(Cc1ccc(-c2ccccn2)cc1)NC(=O)[C@@H](NC(=O)OC)C(C)(C)C)C(C)(C)C [Atazanavir, reference compound] | – | – | – | – | – | 302.1 µM | – | – | 288.3 µM | 281.4 µM | 259.6 µM | – | – | fraction unbound at 2 h, 5 μM [14]: 0.139 ± 0.0167; IC50 [15]: 10.3 µM; Papp A→B ([12]; Caco-2, A→B, ×10^−6): 2.05 ×10⁻⁶ cm/s; fraction unbound at 2 h, 5 μM [13]: 0.106 ± 5.25e-05
COCCOCCOCCOC(=O)NC(C(=O)NC(Cc1ccccc1)C(O)CN(Cc1ccc(-c2ccccn2)cc1)NC(=O)C(NC(=O)OC)C(C)(C)C)C(C)(C)C (centres unmarked) [mono-mPEG3-Atazanavir, {1-[N′-[2-Hydroxy-3-(2-{2-[2-(2-methoxy-ethoxy)-ethoxy]-ethoxycarbonylamino}-3,3-dimethyl-butyrylamino)-4-phenyl-butyl]-N′-(4-pyridin-2-yl-benzyl)-hydrazinocarbonyl]-2,2-dimethyl-propyl}-carbamic Acid Methyl Ester] | – | – | – | – | – | >400 µM | – | – | 396.2 µM | 396.6 µM | >400 µM | – | – | fraction unbound at 2 h, 5 μM [14]: 0.252 ± 0.0397; IC50 [15]: 24.6 µM; efflux ratio ([12]; Caco-2): 44; Papp A→B ([12]; Caco-2, A→B, ×10^−6): 0.53 ×10⁻⁶ cm/s; fraction unbound at 2 h, 5 μM [13]: 0.217 ± 0.000495

— patent US10806794B2, “Protease inhibitors having enhanced features” (priority 2008, dated 2020)
